Measurements taken from patent publication US8178506B2, “Oligomeric compounds and compositions for use in modulation of small non-coding RNAs” (Regulus Therapeutics Inc., priority 2003, dated 2012).
In the oligonucleotide strings, read from the 5' end, every base follows the letter of its sugar. An asterisk marks phosphorothioate; unmarked linkages are phosphodiester. Other units and linkages are bracketed, terminal groups are in braces. A string of capitals states the bases alone. e = 2'-O-(2-methoxyethyl) (MOE); [5mC] = 5-methylcytosine; d = 2'-deoxy (DNA)

Key:
B16-F10 cells = assay: Cell cycle assay in B16-F10 cells; format: cell-based, mouse; conditions: 150 nM, 48 hours, relative to untreated control
Method: (§1) BJ cells were routinely cultured in MEM high glucose with 2 mM L-glutamine and Earle's BSS adjusted to contain 1.5 g/L sodium bicarbonate and supplemented with 10% fetal bovine serum, 0.1 mM non-essential amino acids and 1.0 mM sodium pyruvate (all media and supplements from Invitrogen Life Technologies, Carlsbad, Calif.). B16-F10 cells were routinely cultured in DMEM high glucose (Invitrogen Life Technologies, Carlsbad, Calif.) supplemented with 10% fetal bovine serum (Invitrogen Life Technologies, Carlsbad, Calif.). T47D cells were cultured in DMEM High glucose media (Invitrogen Life Technologies, Carlsbad, Calif.) supplemented with 10% fetal bovine serum. […] Cells were plated on collagen-coated 24-well plates (Falcon-Primaria #3047, BD Biosciences, Bedford, Mass.) at approximately 50,000 cells per well and allowed to attach to wells overnight.
(§2) In further studies, additional cell lines were treated with oligomeric compounds targeted against miRNAs to assess the effects of each oligomeric compound on cell cycling. BJ, B16, T47D, and HeLa cells were cultured and transfected as described above. […] T47Dp53 cells are T47D cells that have been transfected with and selected for maintenance of a plasmid that expresses a wildtype copy of the p53 gene (for example, pCMV-p53; Clontech, Palo Alto, Calif.), using standard laboratory procedures. BJ cells were treated with 200 nM of each oligomeric compound, and T47D, T47Dp53, HeLa, and B16 cells were treated with 150 nM of each oligomeric compound. The human foreskin fibroblast BJ cell line represents a non-cancer cell line, while HeLa, T47D, T47Dp53 cells and the mouse melanoma cell line B16-F10 represent cancerous cell lines. For comparison, oligomeric compounds ISIS 183891 (SEQ ID NO: 847) and ISIS 285717 ([…]; herein incorporated as SEQ ID NO: 857), both targeting the kinesin-like 1/Eg5 mRNA, involved in cell cycling, were used as positive controls. The random-mer ISIS 29848 was used as a negative control. Additionally, the oligomeric compounds ISIS Number 25690 ([…]; herein incorporated as SEQ ID NO: 858) and ISIS Number 25691 ([…]; herein incorporated as SEQ ID NO: 859), targeted to nucleotides 3051-3070 and 3085-3104, respectively, of the mRNA encoding the Drosha RNase III (GenBank Accession NM_013235.2, incorporated herein as SEQ ID NO: 860) were also tested. ISIS Number 25690 and ISIS Number 25691 are 5-10-52′-MOE gapmer compounds, 20 nucleotides in length, with phosphorothioate internucleoside linkages throughout the oligomeric compound. All cytidine residues are 5-methylcytidines. Transfections were performed using the methods described herein. Cells were prepared for flow cytometry 48-hours after oligonucleotide treatment. Results of these studies are shown in Table 35, where data are expressed as percentage of cells in each phase relative to the untreated control cells in that phase.

BJ cells = assay: Cell cycle assay in BJ cells; format: cell-based, human; conditions: 200 nM, 48 hours; for % cells in cell cycle phase G1 / % cells in cell cycle phase G2/M / % cells in cell cycle phase S / % cells in cell cycle phase aneuploid / % cells in cell cycle phase subG1: relative to untreated control
Method: as §1, §2

T47Dp53 cells = assay: Cell cycle assay in T47Dp53 cells; format: cell-based, human; conditions: 150 nM, 48 hours; for % cells in cell cycle phase G1 / % cells in cell cycle phase G2/M / % cells in cell cycle phase S / % cells in cell cycle phase aneuploid / % cells in cell cycle phase subG1: relative to untreated control
Method: as §2

HeLa cells = assay: Cell cycle assay in HeLa cells; format: cell-based, human; conditions: for % cells in cell cycle phase G1 / % cells in cell cycle phase G2/M / % cells in cell cycle phase S / % cells in cell cycle phase aneuploid / % cells in cell cycle phase subG1 / % cells aneuploid / % cells in cell cycle phase: G1 / % cells in cell cycle phase: G2/M / % cells in cell cycle phase: S / % cells in cell cycle phase: aneuploid / % cells in cell cycle phase: subG1: HeLa cells; for % cells in cell cycle phase: G1 / % cells in cell cycle phase: G2/M / % cells in cell cycle phase: S / % cells in cell cycle phase: aneuploid / % cells in cell cycle phase: subG1: 48 hours after treatment, relative to untreated control (UTC=100)
T47D cells = assay: Cell cycle assay in T47D cells; format: cell-based, human; conditions: 150 nM, 48 hours, relative to untreated control
Method: as §1, §2

[1] = system: preadipocytes / differentiating adipocytes; assay: Adipocyte differentiation assay, markers taken together; format: cell-based, human; conditions: differentiating adipocytes, % of UTC (Table 55)
Method: Oligomeric compounds of the invention are tested for their effects on preadipocyte differentiation. […] For the other adipocyte differentiation markers assayed, an oligomeric compound targeted to PPAR-γ, also known to inhibit adipocyte differentiation, may be used as a positive control.
Cells are transfected as described herein. […] Untreated control cells receive LIPOFECTIN™ only.
After the cells have reach confluence (approximately three days), they are exposed for an additional three days to differentiation medium (Zen-Bio, Inc., Research Triangle Park, N.C.) containing a PPAR-γ agonist, IBMX, dexamethasone, and insulin. Cells are then fed adipocyte medium (Zen-Bio, Inc.), which is replaced at 2 or 3 day intervals.
For assaying adipocyte differentiation, expression of the four hallmark genes, HSL, aP2, Glut4, and PPARγ, as well as triglyceride (TG) accumulation and leptin secretion were measured in adipocytes transfected with the uniform 2′-MOE phosphorothioate (PS) oligomeric compounds previously described. Cells are lysed on day nine post-transfection, in a guanadinium-containing buffer and total RNA is harvested. Real-time PCR is performed (Applied Biosystems, Prism 7700) on the total RNA using the following primer/probe sets for the adipocyte differentiation hallmark genes: (aP2): forward 5′-GGTGGTGGAATGCGTCATG-3′ (SEQ ID NO: 746), reverse 5′-[…]-3′ (SEQ ID NO: 747), probe 5′-FAM-[…]-TAMRA-3′ (SEQ ID NO: 748); (Glut4): forward 5′-GGCCTCCGCAGGTTCTG-3′ (SEQ ID NO: 749), reverse 5′-[…]-3′ (SEQ ID NO: 750), probe 5′-FAM-[…]-TAMRA-3′ (SEQ ID NO: 751); (HSL): forward 5′-ACCTGCGCACAATGACACA-3′ (SEQ ID NO: 752), reverse 5′-[…]-3′ (SEQ ID NO: 753), probe 5′-FAM-[…]-TAMRA-3′ (SEQ ID NO: 754); (PPAR-γ): forward 5′-[…]-3′ (SEQ ID NO: 755), reverse 5′-[…]-3′ (SEQ ID NO: 756), probe 5′-FAM-[…]-TAMRA-3′ (SEQ ID NO: 757). The amount of total RNA in each sample is determined using a Ribogreen Assay (Molecular Probes, Eugene, Oreg.), and expression levels of the adipocyte differentiation hallmark genes were normalized to total RNA. Leptin protein and triglyceride levels as well as mRNA levels for each of the four adipocyte differentiation hallmark genes are expressed relative to control levels (control=treatment with ISIS-29848 (SEQ ID NO: 737)).
In some embodiments, differentiating adipocytes were treated with uniform 2′-MOE phosphorothioate oligomeric compounds according to the methods described above, and the expression of the four hallmark genes, HSL, aP2, Glut4, and PPARγ, as well as triglyceride (TG) accumulation were measured. […] Undifferentiated adipocytes were also compared as a negative control. […] The effects of TNF-α, also known to inhibit adipocyte differentiation, were also measured.

HuVECs = assay: Endothelial tube formation assay in HuVECs; conditions: 75 nM
[2] = 150 nM, 48 hours, relative to untreated control
[3] = 150 nM oligomeric compound, 24 hours, relative to untreated control (UTC = 100)

| Substance | % cells in cell cycle phase G1 (B16-F10 cells) [%] | % cells in cell cycle phase G2/M (B16-F10 cells) [%] | % cells in cell cycle phase S (B16-F10 cells) [%] | % cells in cell cycle phase aneuploid (B16-F10 cells) [%] | % cells in cell cycle phase subG1 (B16-F10 cells) [%] | % cells in cell cycle phase G1 (BJ cells) [%] | % cells in cell cycle phase G2/M (BJ cells) [%] | % cells in cell cycle phase S (BJ cells) [%] | % cells in cell cycle phase aneuploid (BJ cells) [%] | % cells in cell cycle phase subG1 (BJ cells) [%] | % cells in cell cycle phase G1 (T47Dp53 cells) [%] | % cells in cell cycle phase G2/M (T47Dp53 cells) [%] | % cells in cell cycle phase S (T47Dp53 cells) [%] | % cells in cell cycle phase aneuploid (T47Dp53 cells) [%] | % cells in cell cycle phase subG1 (T47Dp53 cells) [%] | % cells in cell cycle phase G1 (HeLa cells; [2]) [%] | % cells in cell cycle phase G2/M (HeLa cells; [2]) [%] | % cells in cell cycle phase S (HeLa cells; [2]) [%] | % cells in cell cycle phase aneuploid (HeLa cells; [2]) [%] | % cells in cell cycle phase subG1 (HeLa cells; [2]) [%] | further results |
| --- | --- | --- | --- | --- | --- | --- | --- | --- | --- | --- | --- | --- | --- | --- | --- | --- | --- | --- | --- | --- | --- |
| 25691 (antisense eG*e[5mC]*e[5mC]*eA*eA*dG*dG*d[5mC]*dG*dT*dG*dA*d[5mC]*dA*dT*eG*eA*eT*eA*eT) [compound 25691] | 116 | 99 | 83 | 105 | 316 | 94 | 125 | 116 | 209 | 183 | 130 | 93 | 66 | 95 | 212 | 53 | 113 | 141 | 203 | 881 | % cells in cell cycle phase G1 (T47D cells): 94%; % cells in cell cycle phase G2/M (T47D cells): 104%; % cells in cell cycle phase S (T47D cells): 104%; % cells in cell cycle phase aneuploid (T47D cells): 203%; % cells in cell cycle phase subG1 (T47D cells): 125% |
| 328744 (antisense e[5mC]*eG*eG*eA*eT*d[5mC]*d[5mC]*dT*dG*dT*dT*dA*d[5mC]*d[5mC]*dT*e[5mC]*eA*e[5mC]*e[5mC]*eA) [compound 328744] | 108 | 110 | 87 | 115 | 153 | 94 | 127 | 111 | 158 | 125 | 130 | 101 | 59 | 100 | 90 | 53 | 213 | 110 | 178 | 1057 | % cells aneuploid (HeLa cells; [3]): 111%; % cells in cell cycle phase G1 (HeLa cells; [3]): 31%; % cells in cell cycle phase G2/M (HeLa cells; [3]): 167%; % cells in cell cycle phase S (HeLa cells; [3]): 108%; % cells in cell cycle phase subG1 (HeLa cells; [3]): 229%; % cells in cell cycle phase: G1 (HeLa cells; 150 nM oligomeric compound): 31%; % cells in cell cycle phase: G2/M (HeLa cells; 150 nM oligomeric compound): 334%; % cells in cell cycle phase: S (HeLa cells; 150 nM oligomeric compound): 78%; % cells in cell cycle phase: aneuploid (HeLa cells; 150 nM oligomeric compound): 171%; % cells in cell cycle phase: subG1 (HeLa cells; 150 nM oligomeric compound): 1774%; % cells in cell cycle phase G1 (T47D cells): 90%; % cells in cell cycle phase G2/M (T47D cells): 118%; % cells in cell cycle phase S (T47D cells): 87%; % cells in cell cycle phase aneuploid (T47D cells): 191%; % cells in cell cycle phase subG1 (T47D cells): 85% |
| 345395 (AAGGGATTCCTGGGAAAACTGGAC; sugars from the 5' end e5 d10 e9, all phosphorothioate, methylation of C not given here) [compound 345395] | 106 | 115 | 87 | 150 | 147 | 100 | 104 | 97 | 115 | 132 |  |  |  |  |  | 108 | 95 | 96 | 139 | 87 | % cells aneuploid (HeLa cells; [3]): 77%; % cells in cell cycle phase G1 (HeLa cells; [3]): 54%; % cells in cell cycle phase G2/M (HeLa cells; [3]): 222%; % cells in cell cycle phase S (HeLa cells; [3]): 82%; % cells in cell cycle phase subG1 (HeLa cells; [3]): 247%; % cells in cell cycle phase: G1 (HeLa cells; 150 nM oligomeric compound): 51%; % cells in cell cycle phase: G2/M (HeLa cells; 150 nM oligomeric compound): 157%; % cells in cell cycle phase: S (HeLa cells; 150 nM oligomeric compound): 192%; % cells in cell cycle phase: aneuploid (HeLa cells; 150 nM oligomeric compound): 87%; % cells in cell cycle phase: subG1 (HeLa cells; 150 nM oligomeric compound): 213% |
| AACCGATTTCAGATGGTGCTAG (anti-miR; chemistry not fully specified) [ISIS 327928] |  |  |  |  |  |  |  |  |  |  |  |  |  |  |  |  |  |  |  |  | five markers of adipocyte differentiation [1]: reduce the expression levels of all five markers of adipocyte differentiation; tube formation (HuVECs): suppressed tube formation |
| ISIS 328744: SEQ ID NO: 653, targeting mir-182 (e[5mC]*eG*eG*eA*eT*d[5mC]*d[5mC]*dT*dG*dT*dT*dA*d[5mC]*d[5mC]*dT*e[5mC]*eA*e[5mC]*e[5mC]*eA) |  |  |  |  |  |  |  |  |  |  |  |  |  |  |  |  |  |  |  |  | effect on cell cycling (BJ cells): not affected; effect on cell cycling (T47Dp53 cells): not affected; phase of the cell cycle in which cells arrest or delay (HeLa cells; HeLa, 150 nM, 48 hours): increase in the percentage of cells in the G2/M-phase of the cell cycle as well as in the subG1 category |
